# Source: ChEMBL document CHEMBL2074487, “Effects of 12 Ca2+ antagonists on multidrug resistance, MDR1-mediated transport and MDR1 mRNA expression” (Eur J Pharm Sci, 2002)
# Target: ATP-dependent translocase ABCB1 (Homo sapiens, UniProt P08183)
# Experiment: TP_TRANSPORTER: inhibition of Digoxin transepithelial transport (basal to apical) (Digoxin: 0.1 uM) in MDR1-expressing LLC-PK1 cells
# Type: functional, cell-based
# Sequence of ATP-dependent translocase ABCB1 (P08183 whole entry): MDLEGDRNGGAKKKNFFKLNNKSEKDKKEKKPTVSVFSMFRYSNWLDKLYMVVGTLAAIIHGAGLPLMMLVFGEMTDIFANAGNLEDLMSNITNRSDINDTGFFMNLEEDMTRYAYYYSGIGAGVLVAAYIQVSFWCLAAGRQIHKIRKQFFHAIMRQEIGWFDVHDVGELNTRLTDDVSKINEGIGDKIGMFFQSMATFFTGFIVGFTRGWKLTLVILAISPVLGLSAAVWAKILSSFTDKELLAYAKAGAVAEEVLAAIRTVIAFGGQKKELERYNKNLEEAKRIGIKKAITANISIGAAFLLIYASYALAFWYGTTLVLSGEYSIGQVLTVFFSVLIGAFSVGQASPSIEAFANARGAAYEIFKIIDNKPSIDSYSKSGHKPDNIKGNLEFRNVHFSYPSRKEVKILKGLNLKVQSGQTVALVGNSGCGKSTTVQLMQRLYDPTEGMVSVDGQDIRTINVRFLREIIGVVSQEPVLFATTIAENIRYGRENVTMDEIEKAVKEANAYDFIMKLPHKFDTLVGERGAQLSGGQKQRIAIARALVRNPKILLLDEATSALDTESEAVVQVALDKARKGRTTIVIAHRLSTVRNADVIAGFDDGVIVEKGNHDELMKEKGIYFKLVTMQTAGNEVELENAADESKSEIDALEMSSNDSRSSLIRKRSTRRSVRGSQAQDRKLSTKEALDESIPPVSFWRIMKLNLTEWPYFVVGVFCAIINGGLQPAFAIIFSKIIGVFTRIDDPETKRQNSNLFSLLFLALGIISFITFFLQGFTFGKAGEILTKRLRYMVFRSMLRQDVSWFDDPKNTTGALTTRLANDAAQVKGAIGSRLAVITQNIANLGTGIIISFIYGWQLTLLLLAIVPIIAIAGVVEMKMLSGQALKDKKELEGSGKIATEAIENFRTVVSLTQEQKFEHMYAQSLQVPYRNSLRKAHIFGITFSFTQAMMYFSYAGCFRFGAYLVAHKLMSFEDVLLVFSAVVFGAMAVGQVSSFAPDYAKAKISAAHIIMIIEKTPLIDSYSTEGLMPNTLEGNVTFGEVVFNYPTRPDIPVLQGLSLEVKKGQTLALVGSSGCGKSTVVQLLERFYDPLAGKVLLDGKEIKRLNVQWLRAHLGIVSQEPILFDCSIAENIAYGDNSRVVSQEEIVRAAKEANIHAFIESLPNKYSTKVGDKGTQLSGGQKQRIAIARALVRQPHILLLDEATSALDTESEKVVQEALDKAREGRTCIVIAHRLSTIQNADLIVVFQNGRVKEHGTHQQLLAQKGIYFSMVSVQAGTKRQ
row,Compound,IC50
1,COC(=O)C1=C(C)NC(C)=C(C(=O)O[C@H]2CCN(Cc3ccccc3)C2)[C@H]1c1cccc([N+](=O)[O-])c1 [BARNIDIPINE],12.6 µM
2,COC(=O)C1=C(C)NC(C)=C(C(=O)OC)C1c1ccccc1[N+](=O)[O-] [NIFEDIPINE],472 µM
3,COC(=O)C1=C(C)NC(C)=C(C(=O)O[C@@H]2CCCN(Cc3ccccc3)C2)C1c1cccc([N+](=O)[O-])c1 (some centres not stated),4.96 µM
4,CC1=C(C(=O)OCCN(Cc2ccccc2)c2ccccc2)C(c2cccc([N+](=O)[O-])c2)C(P2(=O)OCC(C)(C)CO2)=C(C)N1 (configuration not stated) [EFONIDIPINE],13 µM

# The next lines start with the values.
row,IC50,Compound
1,44.1 µM,COC(=O)C1=C(C)NC(C)=C(C(=O)OCC(C)C)C1c1ccccc1[N+](=O)[O-] (configuration not stated) [NISOLDIPINE]
2,68.2 µM,CCOC(=O)C1=C(C)NC(C)=C(C(=O)OC)C1c1cccc([N+](=O)[O-])c1 (configuration not stated) [NITRENDIPINE]
3,18 µM,COC(=O)C1=C(C#N)NC(C)=C(C(=O)OC(C)C)C1c1cccc([N+](=O)[O-])c1 (configuration not stated) [NILVADIPINE]
